Reference: patent US20190055267A1, “ORGANOTRIFLUOROBORATE MIMICS OF AMINO ACIDS AND USES THEREOF” (The United States of America, as represented by the …, priority 2015, published 2019)
Read-outs that look alike come from different tables or passages of the source.

Legend:
[1] = system: amino acid transporters; assay: Uptake-concentration kinetics, Michaelis-Menten fitting, in U87MG cells; assay type: cell-based, human; settings: 60 min at 37° C. in PBS, read-out: KM/μM, ^18F-AA-BF3 (BAA)
Protocol: The uptake of BAA in U87MG cells was measured at increasing concentrations in phosphate-buffered saline (PBS) and plotted against the concentration of BAA. […] The KM values of ^18F-BAAs were calculated by Michaelis-Menten fitting using Igor Pro 6.22.
The uptake-concentration correlations (FIGS. 12-15) fit well with Michaelis-Menten kinetics, giving the values of Table 4.

[2] = Solvolysis of the BF3 moiety in phosphate buffer; assay type: physicochemical; settings: for t1/2/min: half-life in phosphate buffer at pH 7.4; for pKB-F: pK of the first fluorine of the BF3− moiety; for k (solv)/min^−1: rate of solvolysis, phosphate buffer pH 7.4
Excerpt: See also, Liu et al., Chem. Eur. J., 2015, 21:3924-8, incorporated herein by reference in its entirety.

[3] = COOH group of the corresponding amino acid; cited from earlier work
[4] = system: UM22B xenograft; assay: PET imaging and biodistribution in UM22B tumor-bearing mice; assay type: in vivo; settings: for bone uptake: PET, tumor-bearing mice; for Average Uptake (% ID/g), blood pool / Average Uptake (% ID/g), hottest voxel cluster of tumor / Average Uptake (% ID/g), kidney / Average Uptake (% ID/g), liver / Average Uptake (% ID/g), muscle / Average Uptake (% ID/g), whole tumor region of interest: UM22B-bearing mice, 120 min after injection
Protocol: All imaging studies were performed as follows. PET scans were obtained and image analysis were performed using an Inveon small-animal PET scanner (Malvern, Pa., USA). About 3.7 MBq of ^18F-AA were administered via tail vein injection under isoflurane anesthesia. […] For dynamic acquisition, 60 min dynamic PET scans were acquired, followed by a late-time-point scans at 2 h after tracer injection. With the acute inflammation model, 10-min static PET images were acquired at 1 h and 2 h after injection. The images were reconstructed using a 3-dimensional ordered subset expectation maximum algorithm, and no correction was applied for attenuation or scatter. For each scan, regions of interest (ROIs) were drawn using vendor software (ASI Pro 5.2.4.0; Siemens Medical Solutions) on decay-corrected whole-body coronal images. The radioactivity concentrations (accumulation) within the tumor, heart, muscle, liver, brain, and kidneys were obtained from mean pixel values within the multiple ROI volumes and then converted to megabecquerel per milliliter. These values were then divided by the administered activity to obtain (assuming a tissue density of 1 g/mL) an image-ROI-derived percentage injected dose per gram (% ID/g).

[5] = system: U87MG human glioma cells; assay type: cell-based
[6] = system: U87MG cells; assay: In vitro competitive inhibition of boramino acid uptake by natural amino acids and transporter inhibitors; design: inhibition: dose or concentration left out as unconfirmed
Protocol: The U87MG cells were in Dulbecco modified Eagle medium and Minimum Essential Medium under a humidified atmosphere with 5% CO2 at 37° C. The culture media was supplemented with 10% fetal bovine serum, 100 U/mL penicillin, and 100 μg/mL streptomycin. […] Prior to incubation, the cells were washed with phosphate-buffered saline (PBS). […] The cells were then washed 3 times with ice-cold PBS, quenched with 0.1 M of NaOH and the cell-bound radioactivity was counted using a gamma counter. Uptake is defined as percentage of added radioactive dose (% AD).
The control is incubation with BAA only without competitor.

[7] = system: amino acid transporters; settings: natural amino acid, comparison value; read-out: KM/μM, AA; cited from earlier work
[8] = system: UM22B cells; assay: Competitive inhibition assay of 18F-Leu-BF3 uptake; assay type: cell-based; settings: 60 min incubation
Protocol: To study the specificity of BAA transportation, a competitive inhibition assay was performed using UM22B cells in the presence of natural amino acid and transporter inhibitor.

[9] = system: HEK293 cells; assay: Cell uptake of 18F-Leu-BF3 in HEK293 cells; assay type: cell-based; settings: 120 min post incubation
[10] = system: UM22B xenografts; assay: PET imaging of 18F-Leu-BF3 co-injected with unlabeled Leu-BF3 (BNCT boron delivery); assay type: in vivo, mice
Protocol: All imaging studies were performed as follows. PET scans were obtained and image analysis were performed using an Inveon small-animal PET scanner (Malvern, Pa., USA). About 3.7 MBq of ^18F-AA were administered via tail vein injection under isoflurane anesthesia. For static acquisition, 10-min static PET scans were acquired at 30, 60 and 120 min after injection. For dynamic acquisition, 60 min dynamic PET scans were acquired, followed by a late-time-point scans at 2 h after tracer injection. With the acute inflammation model, 10-min static PET images were acquired at 1 h and 2 h after injection. The images were reconstructed using a 3-dimensional ordered subset expectation maximum algorithm, and no correction was applied for attenuation or scatter. For each scan, regions of interest (ROIs) were drawn using vendor software (ASI Pro 5.2.4.0; Siemens Medical Solutions) on decay-corrected whole-body coronal images. The radioactivity concentrations (accumulation) within the tumor, heart, muscle, liver, brain, and kidneys were obtained from mean pixel values within the multiple ROI volumes and then converted to megabecquerel per milliliter. These values were then divided by the administered activity to obtain (assuming a tissue density of 1 g/mL) an image-ROI-derived percentage injected dose per gram (% ID/g). […]

[11] = In vivo metabolic stability, HPLC analysis of urine and blood samples; settings: living animals
Protocol: To further evaluate its in vivo metabolic stability, ^18F-Leu-BF3 was also tested in living animals and followed by HPLC analysis of urine and blood samples.

[12] = Metabolic stability in mouse plasma, HPLC analysis; assay type: in vitro ADME; settings: mouse plasma at 37° C. for 30 and 120 min
Protocol: To further evaluate the metabolic stability of boramino acid, ^18F-Leu-BF3 was incubated with mouse plasma at 37° C. for 30 and 120 min. After incubation, most of the radioactivity was extracted from the plasma and followed by HPLC analysis.

[13] = system: UM22B cells; assay: Efflux of radioactivity from cells preloaded with 18F-Leu-BF3; assay type: cell-based; settings: UM22B cells loaded 120 min, 120 min post medium incubation
Protocol: ^18F-Leu-BF3 was first incubated with UM22B cells in PBS (phosphate buffered saline) for 120 min then was removed, followed by rapidly rinsing the cells with PBS three times. The cancer cells were incubated in medium essential medium for 10, 30, 60, and 120 min, and the residual radioactivity was measured (FIG. 16). The decreasing residual radioactivity is time-dependent, and most of the radioactive boramino acid was excreted from the cell in 90 min (less than 2% left at 120 min post medium incubation).
The radioactivity from efflux was further analyzed by re-injection into HPLC at 120 min (efflux: excreted from cell; influx: accumulated into cell). Only one peak was observed, and the elution time was corroborative to that for ^18F-Leu-BF3. The elution time here was 15 min, whereas in FIG. 1 the time was 12.5 min. After the data of FIG. 1 was obtained, maintenance was performed on the HPLC, after which the elution time of ^18F-Leu-BF3 on the HPLC was 15 min.

[14] = system: inflammatory lesion; assay: PET imaging in the acute inflammation model; assay type: in vivo, mice; settings: compared with 18F-FDG (FIGS. 26-28)
Protocol: All imaging studies were performed as follows. PET scans were obtained and image analysis were performed using an Inveon small-animal PET scanner (Malvern, Pa., USA). About 3.7 MBq of ^18F-AA were administered via tail vein injection under isoflurane anesthesia. For static acquisition, 10-min static PET scans were acquired at 30, 60 and 120 min after injection. For dynamic acquisition, 60 min dynamic PET scans were acquired, followed by a late-time-point scans at 2 h after tracer injection. With the acute inflammation model, 10-min static PET images were acquired at 1 h and 2 h after injection. The images were reconstructed using a 3-dimensional ordered subset expectation maximum algorithm, and no correction was applied for attenuation or scatter. For each scan, regions of interest (ROIs) were drawn using vendor software (ASI Pro 5.2.4.0; Siemens Medical Solutions) on decay-corrected whole-body coronal images. The radioactivity concentrations (accumulation) within the tumor, heart, muscle, liver, brain, and kidneys were obtained from mean pixel values within the multiple ROI volumes and then converted to megabecquerel per milliliter. These values were then divided by the administered activity to obtain (assuming a tissue density of 1 g/mL) an image-ROI-derived percentage injected dose per gram (% ID/g).

[15] = system: UM22B xenografts; assay: ICP analysis of boron in tissues after injection; assay type: in vivo, mice; settings: 60 min after injection of 10 mg
Protocol: Tumor-bearing mice were sacrificed at 60 min after injection of 10 mg of Leu-BF3. UM22B xenografts are dissolve into nitric acid and the resulting solution are analyzed by ICP.

[16] = time-activity curves, UM22B tumor-bearing mice (FIGS. 21 and 22)
[17] = U87MG cells, competitor at 25 mM, 60 min incubation
[18] = Homo sapiens, U-87 MG, 1 h, read-out: inhibition of uptake of 18F-Phe-BF3

CC(C)C[C@H]([NH3+])[B-](F)(F)F [^18F-Leu-BF3]
Km [1]: 25.9 ± 2.4 µM

C[C@H]([NH3+])[B-](F)(F)F [Ala-BF3]
t1/2/min [2]: 56.42 h
pKB-F [2]: 3.6895
k (solv)/min^−1 [2]: 0.0002044 min⁻¹
pka of corres. COOH [3]: 2.35

[NH3+][C@@H](Cc1ccccc1)[B-](F)(F)[18F] [^18F-Phe-BF3]
bone uptake [4]: undetectable
Average Uptake (% ID/g), blood pool [4]: 2.46 ± 0.50 % ID/g
Average Uptake (% ID/g), hottest voxel cluster of tumor [4]: 13.29 ± 1.18 % ID/g
Average Uptake (% ID/g), kidney [4]: 2.13 ± 0.34 % ID/g
Average Uptake (% ID/g), liver [4]: 2.67 ± 0.44 % ID/g
Average Uptake (% ID/g), muscle [4]: 2.31 ± 0.44 % ID/g
Average Uptake (% ID/g), whole tumor region of interest [4]: 7.31 ± 0.78 % ID/g
tumor uptake, peak voxel cluster value [4, 16]: approximately 15 % ID/g

^18F-fluorodeoxyglucose [^18F-FDG, reference compound]
cell uptake [5]: less than 5 % AD

N[C@@H](CCC(=O)O)C(=O)O [L-Glutamate]
inhibition of uptake of 18F-Ala-BF3 [6, 17]: 50.3%
inhibition of uptake of 18F-Phe-BF3 [6, 17]: 13.0%
inhibition of uptake of 18F-Pro-BF3 [6, 17]: 0.2%

F[B-](F)(F)[C@@H]1CCC[NH2+]1 [Pro-BF3]
t1/2/min [2]: 210.58 h
pKB-F [2]: 4.2615
k (solv)/min^−1 [2]: 5.476e-05 min⁻¹
pka of corres. COOH [3]: 1.95

C[C@H]([NH3+])[B-](F)(F)F [^18F-Ala-BF3]
Km [1]: 468 ± 87.2 µM

N[C@@H](Cc1ccccc1)C(=O)O [L-phenylalanine]
Km [7]: 18.7 ± 4.1 µM
inhibition at 25000 µM ([6]; Homo sapiens, U-87 MG, 1 h, read-out: inhibition of uptake of 18F-Ala-BF3): 71%
inhibition at 25000 µM [6, 18]: ~80%
inhibition at 25000 µM ([6]; Homo sapiens, U-87 MG, 1 h, read-out: inhibition of uptake of 18F-Pro-BF3): 0.1%

NC1(C(=O)O)CC2CCC1C2 (centres unmarked) [BCH, 2-amino-2-norbornanecarboxylic acid]
inhibition of cell uptake of 18F-Leu-BF3 [8]: 83.0%
inhibition ([6]; Homo sapiens, U-87 MG, 1 h, read-out: inhibition of uptake of 18F-Leu-BF3): 77.4%
inhibition at 25000 µM [6, 18]: 72.1%
inhibition of uptake of 18F-Leu-BF3 ([6]; U87MG cells, BCH with sodium-free medium, 60 min incubation): 83.0%

CC(C)C[C@H]([NH3+])[B-](F)(F)F [Leu-BF3]
t1/2/min [2]: 60.25 h
pKB-F [2]: 3.7181
k (solv)/min^−1 [2]: 0.0001914 min⁻¹
pka of corres. COOH [3]: 2.33

CC(C)C[C@H]([NH3+])[B-](F)(F)[18F] [^18F-Leu-BF3]
cell uptake [9]: 10.4 % AD
bone uptake [4]: undetectable
Average Uptake (% ID/g), blood pool [4]: 0.47 ± 0.12 % ID/g
Average Uptake (% ID/g), hottest voxel cluster of tumor [4]: 12.46 ± 3.0 % ID/g
Average Uptake (% ID/g), kidney [4]: 2.32 ± 0.39 % ID/g
Average Uptake (% ID/g), liver [4]: 0.83 ± 0.16 % ID/g
Average Uptake (% ID/g), muscle [4]: 0.09 ± 0.03 % ID/g
Average Uptake (% ID/g), whole tumor region of interest [4]: 6.72 ± 0.91 % ID/g
tumor uptake, peak voxel cluster value ([4]; comparison of 11C-Leu and 18F-Leu-BF3, one particular mouse (FIGS. 24 and 25)): ~6.5 % ID/g
tumor uptake, peak voxel cluster value [4, 16]: ~13 % ID/g
tumor uptake ([10]; 60 min after injection of <1 μg, 200 μg, 1 mg, 5 mg and 25 mg, by PET imaging): ~10 % ID/g
boron concentration in tumor ([10]; 60 min post-injection, based on calculation): up to 30 ppm
in vivo metabolic stability [11]: neither participates in protein synthesis nor loses fluoride during in vivo circulation
defluoridation from boramino acid to boronic acid [12]: almost negligible
residual radioactivity left in cells [13]: less than 2%
uptake in inflammatory lesion [14]: almost negligible
cell uptake [5]: ~7.5 % AD
boron in tumor ([15]; ICP analysis): 34.5 ppm
tumor-to-brain ratio ([15]; boron by ICP analysis): 13.5
